Ends that are not written are not given here.
Key:
[1] = test system: C. parvum sporozoites; assay: Effect of PLA2 on C. parvum sporozoite infectivity for Caco-2 monolayers; type: cell-based, Cryptosporidium parvum
Method: This experiment describes the effects of PLA2 on sporozoite infectivity. Briefly, sporozoites were incubated in an isotonic saline solution (37° C., 30 min) with a range of concentrations of PLA2 isolated from honey bee venom (Sigma-Aldrich Corp., St. Louis, Mo., 1.5 U/μg protein). Control sporozoites were identically incubated in buffer containing concentration-matched BSA but no PLA2. Sporozoites were then washed in medium and inoculated onto replicate Caco-2 human intestinal epithelial cell monolayers. 24 h later, infection was quantified in test and control monolayers by immunofluorescence assay as described herein and the mean percent reduction of infection calculated. […] Percent viability of Caco-2 cells following exposure to PLA2-treated sporozoites (86%) was similar to that of uninoculated control cells (91%) at 24 hrs, as determined by trypan blue dye exclusion. […]
For this assay, isolated sporozoites are incubated (15 min, 37° C.) with an individual biocide in isotonic buffer over a range of concentrations that would theoretically be achievable at the sporozoite surface by targeted delivery as a MAb-biocide fusion protein. […] In parallel, viability of control sporozoites after incubation with the selected biocide concentrations is determined by fluorescein diacetate assay. […] Samples are then processed and evaluated as described herein. […]

[2] = test system: Caco-2 Host Cells; assay: Host cell toxicity assay by LDH release; type: cell-based, human
Method: Host cell toxicity assay was performed by measuring the release of lactate dehydrogenase (LDH) in the medium using a CYTOTOX 96 Non-Radioactive Cytotoxicity Assay kit (Promega, Madison, Wis.). Toxicity was therefore classified as non toxic 0-5% LDH release and mild toxicity 5-10% LDH release (ref).

[3] = test system: Caco-2 cells; assay: Caco-2 cell viability by trypan blue dye exclusion; type: cell-based, human; conditions: following exposure to PLA2-treated sporozoites, 24 hrs
Method: This experiment describes the effects of PLA2 on sporozoite infectivity. Briefly, sporozoites were incubated in an isotonic saline solution (37° C., 30 min) with a range of concentrations of PLA2 isolated from honey bee venom (Sigma-Aldrich Corp., St. Louis, Mo., 1.5 U/μg protein). Control sporozoites were identically incubated in buffer containing concentration-matched BSA but no PLA2. Sporozoites were then washed in medium and inoculated onto replicate Caco-2 human intestinal epithelial cell monolayers. 24 h later, infection was quantified in test and control monolayers by immunofluorescence assay as described herein and the mean percent reduction of infection calculated. […] Percent viability of Caco-2 cells following exposure to PLA2-treated sporozoites (86%) was similar to that of uninoculated control cells (91%) at 24 hrs, as determined by trypan blue dye exclusion. […] Through fusion of PLA2 to a monoclonal antibody with a high affinity for sporozoites, such as 1E10 or 4H9, lethal concentrations of biocide are deliverable to the sporozoite surface with relatively low amounts of biocide being used.

[4] = read-out: affinity constant (Km) for substrate; cited from earlier work
[5] = test system: panel of organisms in stationary growth phase; conditions: cited from earlier work

Compound: bee-venom phospholipase A2 [PLA2]
- concentration effective in neutralization ([1]; preliminary data): < 0.02 units/ml
- concentration achieving highly significant reduction of sporozoite infectivity ([1]; sporozoites incubated 37° C., 30 min with bee venom PLA2, Caco-2 monolayers, 24 h, P<0.0005): ≤ 0.014 U/ml
- % LDH release ([2]; 100 μg/ml): 0.7 ± 0.7%
- Percent viability of Caco-2 cells [3]: 86%

Compound: lactoferricin B [LFB]
- % LDH release ([2]; 10 μg/ml): 3.7 ± 2.3%
- % LDH release ([2]; 100 μg/ml): 2.6 ± 2.0%

Compound: lysozyme [LYZ]
- Km [4]: ~1000 µM
- % LDH release ([2]; 100 μg/ml): −1.9 ± 1.3%

Compound: b-defensin 2 [βD2]
- % LDH release ([2]; 10 μg/ml): −0.9 ± 0.5%
- % LDH release ([2]; 100 μg/ml): 5.3 ± 1.5 %

Compound: phospho-inositol specific phospholipase C [PI-PLC]
- % LDH release ([2]; 100 μg/ml): −1.4 ± 0.9%

Compound: HNP-1: human neutrophil defensin, SEQ ID NO 38
- antimicrobial properties relative to other defensins [5]: most potent antimicrobial properties

Compound: b-defensin 1 (DHYNCVSSGGQCLYSACPIFTKIQGTCYRGKAKCCK; ends and bridges not checked; cysteine pairing not given here; UniProt P60022 33-68, looked up) [βD1, Peptides international]
- % LDH release ([2]; 10 μg/ml): 0.8 ± 1.0%
- % LDH release ([2]; 100 μg/ml): 2.3 ± 2.1%

Compound: CC[C@H](C)[C@H](NC(=O)[C@H](CCCCN)NC(=O)[C@H](CCC(=O)O)NC(=O)[C@H](CCCCN)NC(=O)[C@H](CO)NC(=O)[C@H](CCCCN)NC(=O)[C@H](CCCNC(=N)N)NC(=O)[C@H](Cc1ccccc1)NC(=O)[C@H](Cc1ccccc1)NC(=O)[C@H](CC(=O)O)NC(=O)CNC(=O)[C@H](CC(C)C)NC(=O)[C@@H](N)CC(C)C)C(=O)NCC(=O)N[C@@H](CCCCN)C(=O)N[C@@H](CCC(=O)O)C(=O)N[C@@H](Cc1ccccc1)C(=O)N[C@@H](CCCCN)C(=O)N[C@@H](CCCNC(=N)N)C(=O)N[C@H](C(=O)N[C@H](C(=O)N[C@@H](CCC(N)=O)C(=O)N[C@@H](CCCNC(=N)N)C(=O)N[C@H](C(=O)N[C@@H](CCCCN)C(=O)N[C@@H](CC(=O)O)C(=O)N[C@@H](Cc1ccccc1)C(=O)N[C@@H](CC(C)C)C(=O)N[C@@H](CCCNC(=N)N)C(=O)N[C@@H](CC(N)=O)C(=O)N[C@@H](CC(C)C)C(=O)N[C@H](C(=O)N1CCC[C@H]1C(=O)N[C@@H](CCCNC(=N)N)C(=O)N[C@H](C(=O)N[C@@H](CCC(=O)O)C(=O)N[C@@H](CO)C(=O)O)[C@@H](C)O)C(C)C)[C@@H](C)CC)C(C)C)[C@@H](C)CC [CAT, cathelicidin]
- % LDH release ([2]; 10 μg/ml): 1.6 ± 0.3 %
- % LDH release ([2]; 100 μg/ml): 5.6 ± 0.9 %

Compound: NP-1: rabbit neutrophil defensin, SEQ ID NO 42 (VVCACRRALCLPRERRAGFCRIRGRIHPLCCRR)
- antimicrobial properties relative to other defensins [5]: most potent antimicrobial properties

Compound: phospholipase A2
- Km [4]: ~100 µM

Compound: indolicidin
- % LDH release ([2]; 10 μg/ml): 0.9 ± 0.7%
- % LDH release ([2]; 100 μg/ml): 8.3 ± 3.5 %

From patent publication US20080274095A1, “Biocides” (priority 2004, published 2008)
